The target of one experiment is human FPR2 (Homo sapiens (Human), UniProt P25090). Kind of experiment: FPR2 cyclic adenosine monophosphate (cAMP) assay. In kind it is cell-based. To be noted: CHO cells overexpressing human FPR2; forskolin 5 µM; inhibition of cAMP production; read-out: hFPR2 cAMP2 EC50. Put shortly:
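Inhibition of forskolin-driven (5 µM) cAMP, with 200 µM IBMX, measured in human FPR2-expressing CHO cells, 2,000 per well, 30 min at room temperature; compounds tested 0.020 nM to 100 µM in 1% DMSO. HTRF 665/590 ratio converted to cAMP via calibration curve, then 4-parameter fit.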
In general terms: cAMP levels reflect the balance of adenylyl cyclase and phosphodiesterase activity.

A further experiment has as its target human FPR1 (Homo sapiens (Human), UniProt P21462). Kind of experiment: FPR1 cyclic adenosine monophosphate (cAMP) assay. In kind it is cell-based. To be noted: CHO cells overexpressing human FPR1; forskolin 10 µM; inhibition of cAMP production; read-out: hFPR1 cAMP EC50. Put shortly:
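Human FPR1-expressing CHO cells were used at 4,000 per well, with compound at 0.020 nM–100 µM in 1% DMSO. Potency came from a 4-parameter logistic fit.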

Where only a bound is given, the exact number is not on record here.

Chain of human FPR2 (P25090 whole entry): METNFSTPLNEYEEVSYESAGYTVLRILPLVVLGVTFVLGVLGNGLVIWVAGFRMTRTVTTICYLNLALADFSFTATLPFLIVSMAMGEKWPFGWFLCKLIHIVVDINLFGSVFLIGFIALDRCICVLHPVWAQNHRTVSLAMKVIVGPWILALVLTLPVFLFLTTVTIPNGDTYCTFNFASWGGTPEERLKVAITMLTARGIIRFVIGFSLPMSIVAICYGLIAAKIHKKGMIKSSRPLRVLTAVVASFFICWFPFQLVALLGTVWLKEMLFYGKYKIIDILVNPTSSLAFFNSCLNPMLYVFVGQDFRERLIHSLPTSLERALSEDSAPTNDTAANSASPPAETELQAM
Chain of human FPR1 (P21462 whole entry): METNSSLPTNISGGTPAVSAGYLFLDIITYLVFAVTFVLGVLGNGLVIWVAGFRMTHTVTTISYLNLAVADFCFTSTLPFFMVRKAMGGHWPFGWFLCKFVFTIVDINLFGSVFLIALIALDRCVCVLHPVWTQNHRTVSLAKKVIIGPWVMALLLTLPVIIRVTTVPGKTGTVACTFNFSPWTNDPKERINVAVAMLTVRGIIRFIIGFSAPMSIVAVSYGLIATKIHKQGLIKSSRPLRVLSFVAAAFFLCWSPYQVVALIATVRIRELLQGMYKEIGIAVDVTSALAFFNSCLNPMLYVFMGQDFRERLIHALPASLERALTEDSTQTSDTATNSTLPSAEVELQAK

For the compound `COc1cc(F)c([C@@H]2CN(c3c(C)ccn(CC(O)C(F)(F)F)c3=O)C(=O)[C@H]2NC(=O)c2ccc(OC(F)F)cc2)c(F)c1` (some centres unmarked) [Example 489], the EC50 at human FPR2 came out at 0.7 nM; on human FPR1, 5 nM.

On to `COc1cc(F)c([C@@H]2CN(c3c(C)ccn(C(F)(F)CO)c3=O)C(=O)[C@H]2NC(=O)c2ccc(OC(F)(F)F)cc2)c(F)c1` [Example 490], for which the EC50 at human FPR2 and on human FPR1 was 1 nM each time.

Consider `COCCN1CCC(c2cc(OC)cc(N3C(=O)[C@@H](NC(=O)c4ccc(OC(F)F)cc4)[C@H](c4c(F)cc(OC)cc4F)[C@@H]3C)n2)CC1` [Example 491], for which the EC50 at human FPR2 was 1.8 nM; on human FPR1, > 5000 nM.

In the case of `COc1cc(C2CCN(CCF)CC2)nc(N2C[C@@H](c3c(F)cc(OC)cc3F)[C@H](NC(=O)c3ccc(OC(F)F)cc3)C2=O)c1` [Example 492], the values for the concentration giving a half-maximal response (EC50) on human FPR2 and on human FPR1 were 8.7 nM and > 5000 nM, respectively.

On to `COc1cc(F)c([C@@H]2CN(c3cccn4cc(C)nc34)C(=O)[C@H]2NC(=O)c2ccc(Cl)cc2)c(F)c1` [Example 493], for which the EC50 at human FPR2 was determined as 2.2 nM; on human FPR1 it was 270 nM.

For `COc1cc(F)c([C@@H]2CN(c3cccn4cc(CO)nc34)C(=O)[C@H]2NC(=O)c2ccc(Cl)cc2)c(F)c1` [Example 494], the 50% effective concentration (EC50) on human FPR2 worked out at 3.4 nM; at human FPR1, 440 nM.

Regarding `COc1cc(F)c([C@@H]2CN(c3cccn4cc(C5CC5)nc34)C(=O)[C@H]2NC(=O)c2ccc(Cl)cc2)c(F)c1` [Example 495], the EC50 worked out at 1.6 nM at human FPR2 and 860 nM at human FPR1.

On to `COc1cc(F)c([C@@H]2CN(c3cccn4cc(C(C)C)nc34)C(=O)[C@H]2NC(=O)c2ccc(Cl)cc2)c(F)c1` [Example 496], for which the EC50 came to 3 nM on human FPR2 and 1100 nM at human FPR1.

As for `COc1cc(F)c([C@@H]2CN(c3cccn4cc(C(F)(F)F)nc34)C(=O)[C@H]2NC(=O)c2ccc(Cl)cc2)c(F)c1` [Example 497], the 50% effective concentration (EC50) at human FPR2 was 1.2 nM; on human FPR1 it was 720 nM.

For the compound `COc1cc(C2CCN(C)CC2)nc(N2C[C@@H](c3c(F)cc(OC)cc3F)[C@H](NC(=O)c3ccc(OC(F)F)cc3)C2=O)c1` [Example 498], the EC50 on human FPR2 is 1.8 nM; on human FPR1, > 5000 nM.

Take `COc1cc(F)c([C@@H]2CN(c3cc(OCC4CCCO4)ncn3)C(=O)[C@H]2NC(=O)c2ccc(Cl)cc2)c(F)c1` (some centres unmarked) [Example 499]: the EC50 was determined as 29 nM on human FPR2 and 60 nM on human FPR1.

As for `COc1cc(F)c([C@@H]2CN(c3cccc(C4=CNCCC4)n3)C(=O)[C@H]2NC(=O)c2ccc(OC(F)F)cc2)c(F)c1` [Example 500], the EC50 was determined as 2.2 nM at human FPR2 and 710 nM on human FPR1.

For the compound `COc1cc(F)c([C@@H]2CN(c3cccc(C4CCCN(CCO)C4)n3)C(=O)[C@H]2NC(=O)c2ccc(OC(F)F)cc2)c(F)c1` (some centres unmarked) [Example 501], the EC50 on human FPR2 turned out to be 1.6 nM; on human FPR1 it was 2500 nM.

As for `COc1cc(F)c([C@@H]2CN(c3cccc(C4CCCN(CCO)C4)n3)C(=O)[C@H]2NC(=O)c2ccc(OC(F)F)cc2)c(F)c1` (some centres unmarked) [Example 502], the concentration for a half-maximal effect (EC50) on human FPR2 worked out at 7.7 nM; on human FPR1, 900 nM.

Consider `COc1cc(F)c([C@H]2[C@H](NC(=O)c3ccc(Cl)cc3)C(=O)N(c3cncn(CC(F)F)c3=O)[C@@H]2C)c(F)c1` [Example 503], for which the EC50 came out at 4.3 nM on human FPR2 and 3500 nM on human FPR1.

As for `COc1cc(C2CCN(CCO)CC2)nc(N2C(=O)[C@@H](NC(=O)c3ccc(OC(F)F)cc3)[C@H](c3c(F)cc(OC)cc3F)[C@@H]2C)c1` [Example 504], the EC50 came out at 2.2 nM on human FPR2 and 3300 nM at human FPR1.

Take `COc1cc(F)c([C@H]2[C@H](NC(=O)c3ccc(OC(F)F)cc3)C(=O)N(c3cccc(P(C)(C)=O)n3)[C@H]2C)c(F)c1` [Example 505]: the EC50 on human FPR2 turned out to be 100 nM; at human FPR1, 3400 nM.

For `COc1cc(F)c([C@@H]2CN(c3c(C)ccn(C4CCNCC4)c3=O)C(=O)[C@H]2NC(=O)c2ccc(Cl)cc2)c(F)c1` [Example 506], the EC50 at human FPR2 came to 0.8 nM; at human FPR1 it was 68 nM.

For the compound `COc1cc(F)c([C@@H]2CN(c3c(C)ccn(C4CCN(C)C4)c3=O)C(=O)[C@H]2NC(=O)c2ccc(OC(F)F)cc2)c(F)c1` (some centres unmarked) [Example 507], the EC50 on human FPR2 worked out at 2.3 nM; on human FPR1, 150 nM.

Regarding `COc1cc(F)c([C@@H]2CN(c3c(C)ccn(C4CCN(C)C4)c3=O)C(=O)[C@H]2NC(=O)c2ccc(OC(F)F)cc2)c(F)c1` (some centres unmarked) [Example 508], the EC50 at human FPR2 was 6.4 nM; at human FPR1, 110 nM.

`COc1cc(F)c([C@@H]2CN(c3cc(OCC4CCOC4)ncn3)C(=O)[C@H]2NC(=O)c2ccc(Cl)cc2)c(F)c1` (some centres unmarked) [Example 509]: the values for the EC50 on human FPR2 and on human FPR1 were 41 nM and 79 nM, respectively.

Regarding `COc1cc(F)c([C@@H]2CN(c3cccc(P(C)(C)=O)n3)C(=O)[C@H]2NC(=O)c2ccc(Cl)cc2)c(F)c1` [Example 511], the results for the EC50 on human FPR2 and at human FPR1 were 66 nM and 390 nM, respectively.

Consider `COc1cc(F)c([C@H]2[C@H](NC(=O)c3ccc(OC(F)F)cc3)C(=O)N(c3cccc(C4CCCN(C)C4)n3)[C@H]2C)c(F)c1` (some centres unmarked) [Example 512], for which the EC50 on human FPR2 was 3.7 nM; at human FPR1, 2100 nM.

For `COc1cc(F)c([C@H]2[C@H](NC(=O)c3ccc(OC(F)F)cc3)C(=O)N(c3cccc(C4CCCN(C)C4)n3)[C@H]2C)c(F)c1` (some centres unmarked) [Example 513], the EC50 at human FPR2 stood at 2.4 nM; on human FPR1, 1500 nM.

For `COc1cc(F)c([C@@H]2CN(c3cncn(C4CCN(C)C4)c3=O)C(=O)[C@H]2NC(=O)c2ccc(Cl)cc2)c(F)c1` (some centres unmarked) [Example 514], the EC50 turned out to be 2.6 nM on human FPR2 and 270 nM at human FPR1.

Take `COc1cc(F)c([C@H]2[C@H](NC(=O)c3ccc(OC(F)F)cc3)C(=O)N(c3cccc(C4CCCN(CCO)C4)n3)[C@H]2C)c(F)c1` (some centres unmarked) [Example 515]: the results for the EC50 on human FPR2 and on human FPR1 were 2.1 nM and 2200 nM, respectively.

`COc1cc(F)c([C@H]2[C@H](NC(=O)c3ccc(OC(F)F)cc3)C(=O)N(c3cccc(C4CCCN(CCO)C4)n3)[C@H]2C)c(F)c1` (some centres unmarked) [Example 516]: the EC50 stood at 1.3 nM on human FPR2 and 1700 nM on human FPR1.

For the compound `COc1cc(F)c([C@@H]2CN(c3cncn(C(CO)C(F)(F)F)c3=O)C(=O)[C@H]2NC(=O)c2ccc(Cl)cc2)c(F)c1` (some centres unmarked) [Example 517], the EC50 at human FPR2 came out at 2.8 nM; on human FPR1 it was 1800 nM.

In the case of `COc1cc(F)c([C@@H]2CN(c3cncn(C(CO)C(F)(F)F)c3=O)C(=O)[C@H]2NC(=O)c2ccc(Cl)cc2)c(F)c1` (some centres unmarked) [Example 518], the EC50 on human FPR2 was found to be 2 nM; at human FPR1 it was 3300 nM.

With `COc1cc(F)c([C@@H]2CN(c3cccn4ccnc34)C(=O)[C@H]2NC(=O)c2ccc(Cl)cc2)c(F)c1` [Example 519], the EC50 on human FPR2 turned out to be 3.1 nM; at human FPR1 it was 480 nM.

For the compound `CCn1cnc(C)c(N2C[C@@H](c3c(F)cc(OC)cc3F)[C@H](NC(=O)c3ccc(Cl)cc3)C2=O)c1=O` [Example 520], the concentration giving a half-maximal response (EC50) on human FPR2 was found to be 4.9 nM; at human FPR1, 1300 nM.

Turning to `COCCn1cnc(C)c(N2C[C@@H](c3c(F)cc(OC)cc3F)[C@H](NC(=O)c3ccc(Cl)cc3)C2=O)c1=O` [Example 521], the figures for the EC50 on human FPR2 and on human FPR1 were 9 nM and 330 nM, respectively.

As to `COc1cc(F)c([C@@H]2CN(c3c(C)ncn(CC4(C)COC4)c3=O)C(=O)[C@H]2NC(=O)c2ccc(Cl)cc2)c(F)c1` [Example 522], the EC50 at human FPR2 was 5.4 nM; on human FPR1 it was > 5000 nM.

Consider `COc1cc(F)c([C@H]2[C@H](NC(=O)c3ccc(OC(F)F)cc3)C(=O)N(c3cccc(C4CCN(C)CC4)n3)[C@H]2C)c(F)c1` [Example 523], for which the EC50 is 1.4 nM at human FPR2 and 3600 nM at human FPR1.

Consider `COc1cc(F)c([C@H]2[C@H](NC(=O)c3ccc(OC(F)F)cc3)C(=O)N(c3cccc(C4CCN(CCO)CC4)n3)[C@H]2C)c(F)c1` [Example 524], for which the half-maximal effective concentration (EC50) at human FPR2 stood at 0.8 nM; on human FPR1, 1400 nM.

Consider `COc1cc(F)c([C@@H]2CN(c3cccc(C4CCN(C)CC4)n3)C(=O)[C@H]2NC(=O)c2ccc(OC(F)F)cc2)c(F)c1` [Example 525], for which the results for the EC50 on human FPR2 and at human FPR1 were 1.4 nM and 420 nM, respectively.

In the case of `COc1cc(F)c([C@H]2[C@H](NC(=O)c3ccc(OC(F)F)cc3)C(=O)N(c3cccc(N4C[C@@H]5C[C@H]4CN5C)n3)[C@H]2C)c(F)c1` [Example 526], the EC50 at human FPR2 came to 1.1 nM; on human FPR1, 2300 nM.

For the compound `COc1cc(F)c([C@@H]2CN(c3cccc(C4CCN(CCO)CC4)n3)C(=O)[C@H]2NC(=O)c2ccc(OC(F)F)cc2)c(F)c1` [Example 527], the values for the EC50 at human FPR2 and at human FPR1 were 1.3 nM and 770 nM, respectively.

With `COc1cc(F)c([C@H]2[C@H](NC(=O)c3ccc(OC(F)F)cc3)C(=O)N(c3cccc(C4CCNCC4)n3)[C@H]2C)c(F)c1` [Example 528], the EC50 at human FPR2 was determined as 0.2 nM; at human FPR1 it was 600 nM.

Turning to `COc1cc(C2CCNCC2)nc(N2C(=O)[C@@H](NC(=O)c3ccc(OC(F)F)cc3)[C@H](c3c(F)cc(OC)cc3F)[C@@H]2C)c1` [Example 529], the EC50 on human FPR2 is 6.7 nM; at human FPR1, > 5000 nM.

Regarding `COc1cc(F)c([C@@H]2CN(c3c(C)ccn(C4CCNC4)c3=O)C(=O)[C@H]2NC(=O)c2ccc(Cl)cc2)c(F)c1` (some centres unmarked) [Example 530], the EC50 at human FPR2 came to 3.1 nM; on human FPR1 it was 680 nM.

For the compound `COc1cc(F)c([C@@H]2CN(c3cccc(N4C[C@@H]5C[C@H]4CN5C)n3)C(=O)[C@H]2NC(=O)c2ccc(OC(F)F)cc2)c(F)c1` [Example 531], the EC50 was 1.6 nM at human FPR2 and 3200 nM on human FPR1.

As to `COc1cc(F)c([C@@H]2CN(c3ncn(CC(C)C)n3)C(=O)[C@H]2NC(=O)c2ccc(Cl)cc2)c(F)c1` [Example 532], the EC50 at human FPR2 is 2.3 nM; at human FPR1, 630 nM.

In general, EC50 refers to the concentration needed to bring the measured effect to its halfway point.

Values taken from patent US20230348426A1, “OXOPYRROLIDINE FPR2 AGONISTS” (Bristol-Myers Squibb Company, priority 2020, published 2023).
